From PubChem BioAssay (NCI)
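48-hour exposure; five concentrations; linearly interpolated endpoints. TGI is the concentration that stops growth completely.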

How the values were obtained:
Assay in all cases: growth of human tumour cells (NCI), 48 h
[1] = system: NCI-H23 lung
[2] = system: SK-OV-3 ovarian
[3] = system: HCT-116 colon
[4] = system: SF-295 CNS
[5] = system: UACC-257 melanoma
[6] = system: NCI-H226 lung
[7] = system: IGROV1 ovarian
[8] = system: OVCAR-5 ovarian
[9] = system: A498 renal
[10] = system: MALME-3M melanoma
[11] = system: HS 578T breast
[12] = system: 786-0 renal
[13] = system: HL-60(TB) leukemia
[14] = system: NCI-H522 lung
[15] = system: NCI/ADR-RES ovarian
[16] = system: UO-31 renal
[17] = system: SK-MEL-28 melanoma
[18] = system: SW-620 colon
[19] = system: SF-268 CNS
[20] = system: SN12C renal
[21] = system: MOLT-4 leukemia
[22] = system: SK-MEL-2 melanoma
[23] = system: RPMI-8226 leukemia
[24] = system: SR leukemia
[25] = system: A549 NSCLC
[26] = system: HT29 colon
[27] = system: SNB-19 CNS
[28] = system: MCF7 breast
[29] = system: EKVX NSCLC
[30] = system: OVCAR-4 ovarian
[31] = system: HOP-62 NSCLC
[32] = system: SK-MEL-5 melanoma
[33] = system: HCT-15 colon
[34] = system: KM12 colon
[35] = system: K-562 leukemia
[36] = system: DU-145 prostate
[37] = system: OVCAR-3 ovarian
[38] = system: SF-539 CNS
[39] = system: M14 melanoma
[40] = system: MDA-MB-231 breast
[41] = system: ACHN renal
[42] = system: U251 CNS
[43] = system: CAKI-1 renal
[44] = system: OVCAR-8 ovarian
[45] = system: UACC-62 melanoma
[46] = system: MDA-MB-435
[47] = system: CCRF-CEM leukemia
[48] = system: PC-3 prostate
[49] = system: BT-549 breast
[50] = system: LOX IMVI melanoma
[51] = system: TK-10 renal
[52] = system: T-47D breast
[53] = system: COLO 205 colon
[54] = system: HCC-2998 colon
[55] = system: SNB-75 CNS
[56] = system: RXF 393 renal
[57] = system: NCI-H460 lung
[58] = system: HOP-92 NSCLC

Measured: TGI

N#CCCOc1cccc(C2(N3CCCCC3)CCCCC2)c1
not listed: [54] | [55] | [56] | [57] | [58]
> 100 µM: all other assays above

O=C1Cc2c([nH]c3ccccc23)C2(CC3CCCCN13)OCCO2 (stereo not given)
not listed: [13] | [14] | [21] | [35] | [38] | [50]
> 100 µM: all other assays above
